Assay: logP (HCOOH)
Type: physicochemical
Settings: Table 2

| SMILES | logP (HCOOH) |
| --- | --- |
| CCc1ncccc1C(=O)Nc1c(NC(C)C2CC2)ncnc1-c1ccc(F)cc1 (stereo not drawn) [1-143] | 1.47 |
| CCc1ncccc1C(=O)Nc1c(NC2CC2)nc(C)nc1-c1ccc(F)cc1F [1-278] | 1 |
| CC(C)Oc1ncccc1C(=O)Nc1c(NC2CC2)ncnc1-c1ccc(F)cc1 [1-163] | 2.19 |
| CCc1ncccc1C(=O)Nc1c(NC(C)(C)C)ncnc1-c1ccc(C#N)cc1 [1-136] | 1.81 |
| CC(C)Oc1ncccc1C(=O)Nc1c(NC2CC2)ncnc1-c1ccc(OC(F)(F)F)cc1 [1-165] | 2.32 |
| CCc1ncccc1C(=O)Nc1c(NC2CC2)nc(C)nc1-c1ccc(Cl)cc1Cl [1-277] | 1.34 |
| O=C(Nc1c(NC2CC2)ncnc1-c1ccc(Cl)cc1)c1c(F)cccc1Cl [1-263] | 2.20 |
| CCc1ncccc1C(=O)Nc1c(NC(C)C2(Cl)CC2)ncnc1-c1ccc(F)cc1 (stereo not drawn) [1-147] | 1.95 |
| O=C(Nc1c(NC2CC2)ncnc1-c1ccc(Cl)cc1)c1cccnc1C(F)(F)F [1-178] | 1.76 |
| CCc1ncccc1C(=O)Nc1c(NC2CC2)ncnc1-c1ccc(F)cc1Cl [1-139] | 0.79 |
| O=C(Nc1c(NC2CC2)ncnc1-c1ccc(OC(F)(F)F)cc1)c1cccnc1Cl [1-75] | 1.99 |
| O=C(Nc1c(NC2CC2)ncnc1-c1ccc(F)cc1)c1cccnc1C(F)C(F)(F)F (stereo not drawn) [1-308] | 1.83 |
| CCc1ncccc1C(=O)Nc1c(NC2CC2)ncnc1-c1ccccc1C [1-182] | 0.94 |
| O=C(Nc1c(NC2CC2)ncnc1-c1ccc(OC(F)(F)F)cc1)c1ccccc1Cl [1-113] | 2.41 |
| CCc1ncccc1C(=O)Nc1c(NC(C)C2CC2)ncnc1-c1ccccc1 (stereo not drawn) [1-152] | 1.32 |
| CCc1ncccc1C(=O)Nc1c(NC2CC2)ncnc1-c1ccccc1 [1-127] | 1.01 |
| CCc1ncccc1C(=O)Nc1c(NC2CC2)nc(C)nc1-c1ccc(F)cc1 [1-276] | 0.88 |
| CCc1ncccc1C(=O)Nc1c(NC2CCC2)ncnc1-c1ccc(F)cc1 [1-224] | 1.36 |
| CCc1ncccc1C(=O)Nc1c(NC2CC2)ncnc1-c1ccc(COc2ccc(C(F)(F)F)cn2)cc1 [1-309] | 1.77 |
| Cc1ncccc1C(=O)Nc1c(NC2CC2)ncnc1-c1cc(F)c(C(F)(F)F)c(F)c1 [1-122] | 1.95 |
| O=C(Nc1c(NC2CC2)ncnc1-c1ccccc1)c1cccnc1 [1-128] | 0.63 |
| CCc1ncccc1C(=O)Nc1c(NC2CC2)ncnc1-c1ccc(F)cc1C [1-180] | 1.10 |
| CC(C)Oc1ncccc1C(=O)Nc1c(NC2CC2)ncnc1-c1ccc(C#N)cc1 [1-164] | 2.27 |
| CCc1ncccc1C(=O)Nc1c(NC2CC2)ncnc1-c1ccc(F)c(F)c1 [1-4] | 1.34 |

| SMILES | logP (HCOOH) |
| --- | --- |
| CCc1ncccc1C(=O)Nc1c(NC2CC2)ncnc1-c1ccc(Cl)cc1F [1-187] | 1.46 |
| CCc1ncccc1C(=O)Nc1c(NC(C)C2(Cl)CC2)ncnc1-c1ccc(C#N)cc1 (stereo not drawn) [1-150] | 2.08 |
| O=C(Nc1c(NC2CC2)ncnc1-c1ccc(OC(F)(F)F)cc1)c1cccnc1OCC(F)(F)F [1-169] | 2.84 |
| Cc1nc(NC2CC2)c(NC(=O)c2ccccc2Cl)c(-c2ccc(C(F)(F)F)cc2)n1 [1-88] | 1.93 |
| CCc1nccc(Cl)c1C(=O)Nc1c(NC2CC2)ncnc1-c1ccc(Cl)cc1 [1-316] | 2.54 |
| O=C(Nc1c(NC(C2CC2)C2CC2)ncnc1-c1ccc(OC(F)(F)F)cc1)c1cccnc1Cl [1-111] | 2.65 |
| CCc1ncccc1C(=O)Nc1c(NC(C)C2(Cl)CC2)ncnc1-c1ccc(Cl)cc1Cl (stereo not drawn) [1-148] | 2.67 |
| CCc1ncccc1C(=O)Nc1c(NC2CC2)ncnc1-c1ccc(C(F)(F)F)cc1C [1-189] | 1.77 |
| CCc1ncccc1C(=O)Nc1c(NC(C)C2CC2)ncnc1-c1ccc(OC(F)(F)F)cc1 (stereo not drawn) [1-146] | 2.18 |
| COc1ncccc1C(=O)Nc1c(NC2CC2)ncnc1-c1ccc(C#N)cc1 [1-156] | 1.59 |
| O=C(Nc1c(NC2CC2)ncnc1-c1ccc(C(F)(F)F)cc1)c1cccnc1C(F)(F)F [1-84] | 2.19 |
| CCOc1ncccc1C(=O)Nc1c(NC2CC2)ncnc1-c1ccc(Cl)cc1 [1-158] | 2.54 |
| CCc1ncccc1C(=O)Nc1c(NC2CC2)ncnc1-c1ccc(F)cc1 [1-124] | 1.03 |
| CCc1nccc(Cl)c1C(=O)Nc1c(NC2CC2)ncnc1-c1ccc(F)cc1 [1-315] | 2.18 |
| Cc1ncccc1C(=O)Nc1c(NC2CC2)ncnc1-c1ccc(SC(F)(F)F)cc1 [1-116] | 1.81 |
| O=C(Nc1c(NC2CC2)ncnc1-c1ccc(F)cc1)c1cccnc1OCC(F)(F)F [1-167] | 2.12 |
| O=C(Nc1c(NC2CC2)ncnc1-c1ccc(Cn2cnc(C(F)(F)F)n2)cc1)c1cccnc1C1CC1 [1-287] | 1.45 |
| COc1ncccc1C(=O)Nc1c(NC2CC2)ncnc1-c1ccc(OC(F)(F)F)cc1 [1-157] | 2.21 |
| O=C(Nc1c(NC2CC2)ncnc1-c1ccc(Cl)cc1)c1cccnc1C(F)F [1-179] | 1.58 |
| CCc1ncccc1C(=O)Nc1c(NC2CC2)nc(C)nc1-c1ccc(OC(F)(F)F)cc1 [1-279] | 1.44 |
| CCc1ccccc1C(=O)Nc1c(NC2CC2)ncnc1-c1ccc(C(F)(F)F)cc1 [1-86] | 2.68 |
| CCOc1ncccc1C(=O)Nc1c(NC2CC2)ncnc1-c1ccc(F)cc1 [1-159] | 1.84 |
| CC(C)c1ncccc1C(=O)Nc1c(NC2CC2)ncnc1-c1ccc(C(F)(F)F)cc1 [1-85] | 2.02 |
| Cc1ncccc1C(=O)Nc1c(NC2CC2)ncnc1-c1ccc(F)cc1 [1-1] | 0.71 |

| SMILES | logP (HCOOH) |
| --- | --- |
| Cc1ccccc1C(=O)Nc1c(NC2CC2)ncnc1-c1ccc(C(F)(F)F)cc1 [1-81] | 2.33 |
| CCc1ncccc1C(=O)Nc1c(NC(C)C2CC2)ncnc1-c1ccc(C#N)cc1 (stereo not drawn) [1-145] | 1.67 |
| CCc1ncccc1C(=O)Nc1c(NC(C)C2CC2)ncnc1-c1ccc(Cl)cc1 (stereo not drawn) [1-144] | 1.62 |
| CCc1ncccc1C(=O)Nc1c(NC2CC2)ncnc1-c1ccc(C#N)cc1C [1-181] | 1.22 |
| CC(Nc1ncnc(-c2ccc(OC(F)(F)F)cc2)c1NC(=O)c1cccnc1Cl)C1CC1 (stereo not drawn) [1-99] | 2.44 |
| O=C(Nc1c(NC2CC2)ncnc1-c1ccc(F)cc1)c1cc(Cl)cnc1C1CC1 [1-198] | 2.16 |
| N#Cc1ccc(-c2ncnc(NC3CC3)c2NC(=O)c2cccnc2OCC(F)(F)F)cc1 [1-168] | 2.11 |
| CCc1ncccc1C(=O)Nc1c(NC(C)(C)C)ncnc1-c1ccc(C(F)(F)F)cc1 [1-137] | 2.34 |
| CCOc1ncccc1C(=O)Nc1c(NC2CC2)ncnc1-c1ccc(OC(F)(F)F)cc1 [1-161] | 2.64 |
| CCc1ncccc1C(=O)Nc1c(NC(C)(C)C)ncnc1-c1ccc(F)cc1 [1-134] | 1.53 |
| CCc1nc(C(F)(F)F)ccc1C(=O)Nc1c(NC2CC2)ncnc1-c1ccc(F)cc1 [1-196] | 2.43 |
| O=C(Nc1c(NC2CC2)ncnc1-c1ccc(F)cc1)c1cccnc1C(F)(F)F [1-170] | 1.59 |
| CCc1ncccc1C(=O)Nc1c(NC(C)C2(Cl)CC2)ncnc1-c1ccc(Cl)cc1 (stereo not drawn) [1-149] | 2.26 |
| Cc1ncccc1C(=O)Nc1c(NC(C)C)ncnc1-c1ccc(OC(F)(F)F)cc1 [1-74] | 1.55 |
| Cc1ncccc1C(=O)Nc1c(NC2CC2)ncnc1-c1ccc(OS(=O)(=O)C(C)C)cc1 [1-121] | 1.15 |
| CCc1cccc(C)c1C(=O)Nc1c(NC2CC2)ncnc1-c1ccc(F)cc1 [1-320] | 2.39 |
| CCc1ncccc1C(=O)Nc1c(NC2CC2)ncnc1-c1ccc(C#N)cc1 [1-133] | 1.10 |
| O=C(Nc1c(NC2CC2)ncnc1-c1ccc(Cl)cc1)c1cccnc1OCC(F)(F)F [1-166] | 2.48 |
| O=C(Nc1c(NC2CC2)ncnc1-c1ccc(Cl)cc1)c1cccnc1Cl [1-130] | 1.55 |
| O=C(Nc1c(NC2CC2)ncnc1-c1ccc(C(F)(F)F)cc1)c1ccccc1Cl [1-80] | 2.33 |
| CCc1ncccc1C(=O)Nc1c(NC(C)(C)C)ncnc1-c1ccc(Cl)cc1Cl [1-142] | 1.89 |
| CCc1ncccc1C(=O)Nc1c(NC2CC2)ncnc1-c1ccc(Cn2cnc(C(F)(F)F)n2)cc1 [1-273] | 1.11 |

Same assay, conditions: Table 4

| SMILES | logP (HCOOH) |
| --- | --- |
| CCc1ncccc1C(=O)Nc1c(CC)ncnc1NC1CC1 [3-8] | 1.74 |
| CCc1ncccc1C(=O)Nc1c(Cl)nc(C)nc1NC1CC1 [3-9] | 1.41 |
| O=C(Nc1c(Cl)ncnc1NC1CC1)c1cccnc1CC(F)(F)F [3-5] | 1.61 |
| CCc1ncccc1C(=O)Nc1c(Cl)ncnc1NC1CC1C (stereo not drawn) [3-7] | 1.26 |

Same assay, conditions: table after Table 9

| SMILES | IogP (HCOOH) |
| --- | --- |
| O=C(Nc1c(NC2CC2)ncnc1-c1ccc(F)cc1)c1ccnn1-c1ccccc1Cl [9-3] | 1.76 |
| O=C(Nc1c(NC2CC2)ncnc1-c1ccc(F)cc1)c1ccnn1-c1ccc(F)cc1 [9-1] | 1.70 |
| O=C(Nc1c(NC2CC2)ncnc1-c1ccc(F)cc1)c1ccnn1-c1ccc(Cl)cc1 [9-2] | 2.02 |
| O=C(Nc1c(NC2CC2)ncnc1-c1ccc(Cl)cc1)c1ccnn1-c1ccccc1Cl [9-4] | 2.05 |
